# According to patent US7462717B2, “C6-and C9-substituted chromeno[4,3-c]isoxazoline derivatives and their use as anti-depressants” (Janssen Pharmaceutica N.V., priority 2002, dated 2008):
# Key:
# [1] = target: T1, h5-HT transporter (Homo sapiens, UniProt P31645); test: Radioligand binding experiment for 5-HT transporter ([3H]paroxetine); conditions: human platelet membranes; [3H]paroxetine 0.5 nM; read-out: 5-HTT (converted)
# T1 construct: Human platelet membranes (Oceanix Biosciences Corporation, Hanover, Md., USA) were thawed; tissue Oceanix Biosciences Corporation; host or cells: human platelet membranes
# Protocol: (§1) The interaction of the compounds of Formula (I) with hα2-receptors and h5-HT-transporters was assessed in in vitro radioligand binding experiments. In general, a low concentration of a radioligand with a high binding affinity for a particular receptor or transporter is incubated with a sample of a tissue preparation enriched in a particular receptor or transporter or with a preparation of cells expressing cloned human receptors in a buffered medium. During the incubation, the radioligand binds to the receptor or transporter. When equilibrium of binding is reached, the receptor bound radioactivity is separated from the non-bound radioactivity, and the receptor- or transporter-bound activity is counted. The interaction of the test compounds with the receptor is assessed in competition binding experiments. Various concentrations of the test compound are added to the incubation mixture containing the receptor- or transporter preparation and the radioligand. The test compound in proportion to its binding affinity and its concentration inhibits binding of the radioligand. The radioligand used for hα2A, hα2B and hα2C receptor binding was [^3H]-raulwolscine and for the h5-HT transporter was [^3H]paroxetine.
# Human platelet membranes (Oceanix Biosciences Corporation, Hanover, Md., USA) were thawed, diluted in buffer (Tris-HCl 50 mM, 120 mM NaCl and 5 mM KCl) and quickly (max 3 s) homogenised with an Ultraturrax homogenizer. In a total volume of 250 μL, 50-100 μg protein was incubated with [^3H]paroxetine (NET-869) (New England Nuclear, USA) (0.5 nM final concentration) with or without competitor for 60 min at 25° C. Incubation was stopped by rapid filtration of the incubation mixture over GF/B filters, pre-wetted with 0.1% polyethyleneamine, using a Filtermate 196 harvester (Packard, Meriden, Conn.). Filters were rinsed extensively with ice-cold buffer and radioactivity on the filters was counted in a Topcount liquid scintillation counter (Packard, Meriden, Conn.). Data were expressed as cpm. Imipramine (at 1 μM final concentration) was used to determine the non-specific binding.
# (§2) Data from assays in the presence of compound were calculated as a percentage of total binding measured in the absence of test compound. Inhibition curves, plotting percent of total binding versus the log value of the concentration of the test compound, were automatically generated, and sigmoidal inhibition curves were fitted using non-linear regression. The pIC50 values of test compounds were derived from individual curves. All compounds according to Formula (I) produced an inhibition at least at the hα2A site (but often also at the hα2B and hα2C sites) and simultaneously at the 5-HT transporter site of more than 50% (PIC50) at a test concentration ranging between 10^−6 M and 10^−9 M in a concentration-dependent manner.
# [2] = target: T2, hα2B receptor (Homo sapiens, UniProt P18089); test: Radioligand binding experiment for α2B-adrenergic receptor ([3H]-raulwolscine); conditions: membranes of CHO cells transfected with human α2B receptor; [3H]raulwolscine 1 nM
# T2 construct: expressed in transfected cells
# T2 sequence (P18089 1-450): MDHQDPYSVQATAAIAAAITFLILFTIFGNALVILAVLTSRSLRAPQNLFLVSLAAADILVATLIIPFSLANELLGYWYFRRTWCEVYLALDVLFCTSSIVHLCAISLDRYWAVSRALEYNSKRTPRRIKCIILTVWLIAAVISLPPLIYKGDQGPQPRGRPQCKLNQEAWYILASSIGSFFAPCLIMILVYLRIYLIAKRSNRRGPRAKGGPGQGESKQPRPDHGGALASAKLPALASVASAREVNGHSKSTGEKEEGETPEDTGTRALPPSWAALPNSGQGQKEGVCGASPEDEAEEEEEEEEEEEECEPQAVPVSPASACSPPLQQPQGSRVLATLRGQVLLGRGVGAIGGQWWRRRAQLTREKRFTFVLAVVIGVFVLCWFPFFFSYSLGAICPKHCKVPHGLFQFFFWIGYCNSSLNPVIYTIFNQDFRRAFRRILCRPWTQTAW
# Protocol: as §1
# (§3) CHO cells, stabile transfected with human adrenergic-α2A-, -α2B or α2C receptor cDNA, were cultured in Dulbecco's Modified Eagle's Medium (DMEM)/Nutrient mixture Ham's F12 (ratio 1:1) (Gibco, Gent-Belgium) supplemented with 10% heat inactivated fetal calf serum (Life Technologies, Merelbeke-Belgium) and antibiotics (100 IU/ml penicillin G, 100 μg/ml streptomycin sulphate, 110 μg/ml pyruvic acid and 100 μg/ml L-glutamine). One day before collection, cells were induced with 5 mM sodiumbutyrate. Upon 80-90% of confluence, cells were scraped in phosphate buffered saline without Ca^2+ and Mg^2+ and collected by centrifugation at 1500×g for 10 min. The cells were homogenised in Tris-HCl 50 mM using an Ultraturrax homogenizer and centrifuged for 10 min at 23,500×g. The pellet was washed once by resuspension and rehomogenization and the final pellet was resuspended in Tris-HCl, divided in 1 ml aliquots and stored at −70° C.
# (§4) Membranes were thawed and re-homogenized in incubation buffer (glycylglycine 25 mM, pH 8.0). In a total volume of 500 μl, 2-10 μg protein was incubated with [^3H]raulwolscine (NET-722) (New England Nuclear, USA) (1 nM final concentration) with or without competitor for 60 min at 25° C. followed by rapid filtration over GF/B filter using a Filtermate 196 harvester (Packard, Meriden, Conn.). Filters were rinsed extensively with ice-cold rinsing buffer (Tris-HCl 50 mM pH 7.4). Filter-bound radioactivity was determined by scintillation counting in a Topcount (Packard, Meriden, Conn.) and results were expressed as counts per minute (cpm). Non-specific binding was determined in the presence of 1 μM oxymetazoline for hα2A- and hα2B-receptors and 1 μM spiroxatrine for hα2C receptors.
# as §2
# [3] = target: T3, hα2A receptor (Homo sapiens, UniProt P08913); test: Radioligand binding experiment for α2A-adrenergic receptor ([3H]-raulwolscine); conditions: membranes of CHO cells transfected with human α2A receptor; [3H]raulwolscine 1 nM
# T3 construct: expressed in transfected cells
# T3 sequence (P08913 1-465): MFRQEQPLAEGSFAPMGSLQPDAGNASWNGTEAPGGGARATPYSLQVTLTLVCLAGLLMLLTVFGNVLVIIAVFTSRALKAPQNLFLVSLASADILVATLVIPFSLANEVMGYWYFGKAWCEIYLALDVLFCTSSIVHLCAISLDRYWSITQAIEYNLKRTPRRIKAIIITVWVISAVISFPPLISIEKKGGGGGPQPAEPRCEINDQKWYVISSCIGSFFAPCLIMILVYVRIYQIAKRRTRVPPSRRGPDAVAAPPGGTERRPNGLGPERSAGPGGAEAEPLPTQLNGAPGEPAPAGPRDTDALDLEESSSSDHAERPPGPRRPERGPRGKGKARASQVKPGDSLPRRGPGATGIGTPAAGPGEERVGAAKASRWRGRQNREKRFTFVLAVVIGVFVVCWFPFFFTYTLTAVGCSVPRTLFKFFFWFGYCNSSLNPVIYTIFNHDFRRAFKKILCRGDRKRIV
# Protocol: as §1, §3, §4, §2
# [4] = target: T4, hα2C receptor (Homo sapiens, UniProt P18825); test: Radioligand binding experiment for α2C-adrenergic receptor ([3H]-raulwolscine); conditions: membranes of CHO cells transfected with human α2C receptor; [3H]raulwolscine 1 nM
# T4 construct: expressed in transfected cells
# T4 sequence (P18825 1-462): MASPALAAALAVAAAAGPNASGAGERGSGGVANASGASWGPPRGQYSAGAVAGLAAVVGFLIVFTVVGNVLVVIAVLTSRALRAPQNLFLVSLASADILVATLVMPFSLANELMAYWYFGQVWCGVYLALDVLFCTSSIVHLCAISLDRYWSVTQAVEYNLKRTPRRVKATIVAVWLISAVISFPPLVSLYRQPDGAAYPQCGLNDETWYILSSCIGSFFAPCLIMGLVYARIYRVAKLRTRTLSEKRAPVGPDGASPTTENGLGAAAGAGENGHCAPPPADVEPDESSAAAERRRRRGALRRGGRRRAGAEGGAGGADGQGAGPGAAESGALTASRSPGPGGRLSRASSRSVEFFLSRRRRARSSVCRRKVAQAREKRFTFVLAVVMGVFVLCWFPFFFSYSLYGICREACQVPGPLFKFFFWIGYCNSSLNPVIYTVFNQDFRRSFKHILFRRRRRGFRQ
# Protocol: as §1, §3, §4, §2
# T1 sequence (P31645 whole entry): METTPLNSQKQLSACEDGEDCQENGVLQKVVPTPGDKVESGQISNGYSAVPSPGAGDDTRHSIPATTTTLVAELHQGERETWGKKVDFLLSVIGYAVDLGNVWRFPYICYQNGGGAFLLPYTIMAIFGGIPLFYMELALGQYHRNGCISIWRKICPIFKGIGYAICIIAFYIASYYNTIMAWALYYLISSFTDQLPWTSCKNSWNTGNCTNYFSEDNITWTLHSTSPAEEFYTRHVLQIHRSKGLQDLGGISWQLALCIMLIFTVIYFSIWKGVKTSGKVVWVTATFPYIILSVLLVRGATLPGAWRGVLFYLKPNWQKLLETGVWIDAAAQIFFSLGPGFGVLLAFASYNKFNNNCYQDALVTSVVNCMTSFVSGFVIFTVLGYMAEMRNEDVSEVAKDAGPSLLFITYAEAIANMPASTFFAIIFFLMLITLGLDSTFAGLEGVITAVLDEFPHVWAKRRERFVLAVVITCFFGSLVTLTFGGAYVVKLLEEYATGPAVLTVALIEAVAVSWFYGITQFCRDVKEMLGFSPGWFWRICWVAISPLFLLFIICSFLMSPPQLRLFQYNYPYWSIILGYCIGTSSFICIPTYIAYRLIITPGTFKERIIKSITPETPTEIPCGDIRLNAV
SMILES,IC50 [1],IC50 [2],IC50 [3],IC50 [4]
COCC(=O)OCCOc1cccc2c1C1=NOC(CN3CCN(CC(C)=Cc4ccccc4)CC3)C1CO2 (centres unmarked) [Compound 14],1000 nM,3.16 nM,2.51 nM,1.26 nM
CC(=Cc1ccccc1)CN1CCN(CC2ON=C3c4cccc(NCCN5CCCC5)c4OCC32)CC1 (centres unmarked) [Compound 16],25.1 nM,3.98 nM,39.8 nM,7.94 nM
CCNC(=O)Nc1cccc2c1OCC1C2=NOC1CN1CCN(CC(C)=Cc2ccccc2)CC1 (centres unmarked) [Compound 17],10 nM,6.31 nM,63.1 nM,15.8 nM
COc1cc2c(c(I)c1OC)OCC1C2=NOC1CN1CCN(CC(C)=Cc2ccc(F)cc2)CC1 (centres unmarked) [Compound 18],50.1 nM,31.6 nM,25.1 nM,25.1 nM
COc1cc2c(c(C#N)c1OC)OCC1C2=NOC1CN1CCN(CC(C)=Cc2ccc(F)cc2)CC1 (centres unmarked) [Compound 19],126 nM,20 nM,10 nM,15.8 nM
COc1cc2c(c(N3CCC3=O)c1OC)OCC1C2=NOC1CN1CCN(CC(C)=Cc2ccc(F)cc2)CC1 (centres unmarked) [Compound 20],126 nM,25.1 nM,79.4 nM,31.6 nM
CC(=O)Nc1cccc2c1OCC1C2=NOC1CN1CCN(CC(C)=Cc2ccccc2)CC1 (centres unmarked) [Compound 22],25.1 nM,2 nM,31.6 nM,3.98 nM
CC(=Cc1ccccc1)CN1CCN(CC2ON=C3c4cccc(NCc5ccccc5)c4OCC32)CC1 (centres unmarked) [Compound 23],126 nM,50.1 nM,63.1 nM,20 nM
